Data reported in patent US6858739B2, “Indole and benzimidazole 15-lipoxygenase inhibitors” (Warner-Lambert Company, priority 2000, dated 2005).

Columns and labels:
[1] = biological target: T1, rabbit reticulocyte 15-LO (Oryctolagus cuniculus, UniProt P12530); assay: 15-LO inhibition, rabbit reticulocyte enzyme (HPLC method of Auerbach et al.); assay type: biochemical; settings: linoleic acid as substrate, incubation at 4° C. for 10 minutes
T1 construct: one utilizing rabbit reticulocyte 15-LO; from tissue; host or cells: rabbit reticulocytes
T1 sequence (P12530 1-663): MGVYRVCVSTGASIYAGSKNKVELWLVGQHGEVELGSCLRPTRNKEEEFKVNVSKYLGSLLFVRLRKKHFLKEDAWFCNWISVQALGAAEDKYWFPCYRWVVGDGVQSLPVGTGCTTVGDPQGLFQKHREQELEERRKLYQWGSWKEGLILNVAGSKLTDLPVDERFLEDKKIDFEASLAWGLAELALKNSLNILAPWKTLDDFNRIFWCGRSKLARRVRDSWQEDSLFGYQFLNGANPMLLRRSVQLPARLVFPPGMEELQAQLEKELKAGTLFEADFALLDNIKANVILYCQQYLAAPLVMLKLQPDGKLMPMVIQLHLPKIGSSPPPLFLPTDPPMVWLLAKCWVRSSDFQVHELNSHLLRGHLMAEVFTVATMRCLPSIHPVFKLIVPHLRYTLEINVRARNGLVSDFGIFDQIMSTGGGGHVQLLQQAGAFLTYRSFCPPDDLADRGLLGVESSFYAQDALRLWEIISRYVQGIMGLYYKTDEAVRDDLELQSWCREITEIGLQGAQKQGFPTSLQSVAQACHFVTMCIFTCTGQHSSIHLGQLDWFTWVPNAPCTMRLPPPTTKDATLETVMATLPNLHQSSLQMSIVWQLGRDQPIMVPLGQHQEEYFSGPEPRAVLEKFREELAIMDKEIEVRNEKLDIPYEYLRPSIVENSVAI
Experimental: (§1) The compounds described above are effective inhibitors of 15-LO when evaluated in standard assays routinely utilized to measure 15-LO activity. Specifically, representative compounds were evaluated by the methods described by Auerbach et al., Analytical Biochemistry, 1992;201:375-380. Two in vitro assays were utilized, one utilizing rabbit reticulocyte 15-LO, the other using human 15-LO. Both used linoleic acid as substrate, to enzymatically produce a peroxide oxidation product known as 13(S)-HPODE. N-Benzoyl leucomethylene blue was utilized as a colorimetric reagent for detection and quantification of the peroxide formation. Also, HPLC was utilized to quantify the oxidation following incubation at 4° C. for 10 minutes.
(§2) Data Column 1 gives the concentration of compound required to inhibit 50% of the activity of 15-LO (IC50) when measured by the HPLC method of Auerbach et al. using rabbit enzymes, and data Column 2 gives data from human 15-LO enzyme.

[2] = biological target: T2, human 15-LO (Homo sapiens, UniProt P16050); assay: 15-LO inhibition, human enzyme; assay type: biochemical; settings: linoleic acid as substrate; for inhibition at 10 µM: at 10 micromolar
T2 sequence (P16050 1-662): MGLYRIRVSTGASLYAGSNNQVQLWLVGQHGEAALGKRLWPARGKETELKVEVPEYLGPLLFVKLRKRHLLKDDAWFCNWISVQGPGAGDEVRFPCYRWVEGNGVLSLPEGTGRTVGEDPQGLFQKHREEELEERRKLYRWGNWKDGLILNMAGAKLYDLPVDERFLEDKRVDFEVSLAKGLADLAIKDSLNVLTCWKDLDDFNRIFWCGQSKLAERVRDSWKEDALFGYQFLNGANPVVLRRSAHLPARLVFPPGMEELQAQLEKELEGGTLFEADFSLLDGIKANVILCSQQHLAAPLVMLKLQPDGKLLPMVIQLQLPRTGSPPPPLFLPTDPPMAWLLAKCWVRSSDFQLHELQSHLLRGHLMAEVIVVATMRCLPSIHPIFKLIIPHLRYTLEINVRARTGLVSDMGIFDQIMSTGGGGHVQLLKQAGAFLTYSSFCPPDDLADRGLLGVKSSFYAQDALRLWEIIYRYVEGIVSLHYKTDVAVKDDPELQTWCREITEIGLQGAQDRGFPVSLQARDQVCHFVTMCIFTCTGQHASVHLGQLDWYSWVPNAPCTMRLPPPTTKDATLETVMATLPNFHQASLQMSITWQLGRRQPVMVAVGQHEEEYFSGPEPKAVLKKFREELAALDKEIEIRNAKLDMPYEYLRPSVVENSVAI
Experimental: as §1, §2

Row | Compound | melting point [°C] | IC50 [1] [nM] | IC50 [2] [nM] | inhibition at 10 µM [2] [%]
1 | COc1ccc(-c2cc3ccccc3[nH]2)cc1N [Example 1, 5-(1H-Indol-2-yl)-2-methoxy-phenylamine] | 208 to 209 | 113 | 23 | 
2 | COc1ccc(-c2cc3ccccc3[nH]2)cc1NC(=S)Nc1cc(Cl)cc(Cl)c1 [Example 2, 1-(3,5-Dichloro-phenyl)-3-[5-(1H-indol-2-yl)-2-methoxy-phenyl]-thiourea] | 199 to 201 | 11 | 29 | 
3 | COc1ccc(-c2cc3cc(F)c(F)cc3[nH]2)cc1N [Example 3, 5-(5,6-Difluoro-1H-indol-2-yl)-2-methoxy-phenylamine] | 210 to 211 | 27 | 53 | 
4 | COc1ccc(-c2cc3cc(F)c(F)cc3[nH]2)cc1NC(=S)Nc1cc(Cl)cc(Cl)c1 [Example 4, 1-(3,5-Dichloro-phenyl)-3-[5-(5,6-difluoro-1H-indol-2-yl)-2-methoxy-phenyl]-thiourea] | 203 to 205 | 30 | 60 | 
5 | COc1ccc(-c2cc3cc(F)c(F)cc3[nH]2)cc1NC(=S)Nc1ccc(C(=O)O)cc1 [Example 5, 4-{3-[5-(5,6-Difluoro-1H-indol-2-yl)-2-methoxy-phenyl]-thioureido}-benzoic acid] | 201 to 203 | 11 | 13 | 
6 | COc1ccc(-c2cc3cc(F)c(F)cc3[nH]2)cc1NC(=S)Nc1cccc(C(=O)O)c1 [Example 6, 3-{3-[5-(5,6-Difluoro-1H-indol-2-yl)-2-methoxy-phenyl]-thioureido}-benzoic acid] | 221 to 223 | 2 | 25 | 
7 | COc1ccc(-c2cc3cc(F)c(F)cc3[nH]2)cc1NS(C)(=O)=O [Example 7, N-[5-(5,6-Difluoro-1H-indol-2-yl)-2-methoxy-phenyl]-methanesulfonamide] | 254 to 256 | 10 | 19 | 
8 | COc1ccc(-c2cc3cc(F)c(F)cc3[nH]2)cc1NS(=O)(=O)c1cc(Cl)cc(Cl)c1 [Example 8, 3,5-Dichloro-N-[5-(5,6-difluoro-1H-indol-2-yl)-2-methoxy-phenyl]-benzenesulfonamide] | 217 to 219 | 19 | 73 | 
9 | COc1ccc(-c2cc3cc(F)c(F)cc3[nH]2)cc1NS(=O)(=O)c1cccs1 [Example 9, Thiophene-2-sulfonic acid [5-(5,6-difluoro-1H-indol-2-yl)-2-methoxy-phenyl]-amide] | 211 to 213 | 40 | 7 | 
10 | COc1ccc(-c2nc3cc(Cl)c(Cl)cc3n2C(=O)OCc2ccccc2)cc1NS(=O)(=O)c1cccs1 [Example 10, 5,6-Dichloro-2-[4-methoxy-3-(thiophene-2-sulfonylamino)-phenyl]-benzoimidazole-1-carboxylic acid benzyl ester] | 195 to 198 | 1390 |  | 81
11 | COc1ccc(-c2cc3cc(F)c(F)cc3[nH]2)cc1NCc1cccc(O)c1 [Example 11, 3-{[5-(5,6-Difluoro-1H-indol-2-yl)-2-methoxy-phenylamine]-methyl}-phenol] |  | 24 | 106 | 
12 | COc1ccc(-c2cc3cc(F)c(F)cc3[nH]2)cc1NCc1cccs1 [Example 12, [5-(5,6-Difluoro-1H-indol-2-yl)-2-methoxy-phenyl]-thiophen-2-ylmethyl-amine] | 190 to 192 | 45 | 461 | 
13 | COc1ccc(CNc2cc(-c3cc4cc(F)c(F)cc4[nH]3)ccc2OC)cc1 [Example 13, [5-(5,6-Difluoro-1H-indol-2-yl)-2-methoxy-phenyl]-(4-methoxy-benzyl)-amine] | 173 to 175 | 40 | 414 | 
14 | COC(=O)c1ccc(CNc2cc(-c3cc4cc(F)c(F)cc4[nH]3)ccc2OC)cc1 [Example 14, 4-{[5-(5,6-Difluoro-1H-indol-2-yl)-2-methoxy-phenylamino]-methyl}-benzoic acid methyl ester] | 168 to 170 | 113 | 1260 | 
15 | COc1ccc(-c2cc3cc(F)c(F)cc3[nH]2)cc1NS(=O)(=O)c1cccc([N+](=O)[O-])c1 [Example 15, N-[5-(5,6-Difluoro-1H-indol-2-yl)-2-methoxy-phenyl]-3-nitro-benzenesulfonamide] | 228 to 230 | 124 | 49 | 
16 | COc1ccc(-c2cc3cc(Cl)c(Cl)cc3[nH]2)cc1N [Example 18, 5-(5,6-Dichloro-1H-indol-2-yl)-2-methoxy-phenylamine] | 235 to 237 | 37 | 359 | 
17 | COc1ccc(-c2cc3cc(Cl)c(Cl)cc3[nH]2)cc1NC(=S)Nc1cccc(C(=O)O)c1 [Example 19, 3-{3-[5-(5,6-Dichloro-1H-indol-2-yl)-2-methoxy-phenyl]-thioureido}-benzoic acid] | 216 to 218 | 13 | 254 | 
18 | CCOP(=O)(Cc1ccc(NC(=S)Nc2cc(-c3cc4cc(F)c(F)cc4[nH]3)ccc2OC)cc1)OCC [Example 24, (4-{3-[5-(5,6-Difluoro-1H-indol-2-yl)-2-methoxy-phenyl]-thioureido}-benzyl)-phosphonic acid diethyl ester] | 180 to 182 | 18 | 91 | 
19 | COc1ccc(-c2cc3cc(F)c(F)cc3[nH]2)cc1NCc1ccc([N+](=O)[O-])c(O)c1 [Example 48, [5-(5,6-Difluoro-1H-indol-2-yl)-2-methoxy-phenyl]-(3-hydroxy-4-nitro-benzyl)-amine] | 170 to 171 |  |  | 98
20 | COc1ccc(-c2cc3cc(F)c(F)cc3[nH]2)cc1NCc1ccc(O)c([N+](=O)[O-])c1 [Example 49, [5-(5,6-Difluoro-1H-indol-2-yl)-2-methoxy-phenyl](4-hydroxy-3-nitro-benzyl)-amine] | 195 to 196 |  |  | 99
21 | COc1ccc(-c2cc3cc(F)c(F)cc3[nH]2)cc1NCc1cccc(C#N)c1 [Example 51, [5-(5,6-Difluoro-1H-indol-2yl)-2-methoxy-phenyl]-(3-cyano-benzyl)-amine] | 154 to 155 |  | 432 | 
22 | COC(=O)c1ccc(Nc2cc(-c3cc4cc(F)c(F)cc4[nH]3)ccc2OC)cc1 [Example 52, 4-[5-(5,6-Difluoro-1H-indol-2-yl)-2-methoxy-phenylamino]-benzoic acid methyl ester] | 166 to 170 |  | 31 | 
23 | COc1ccc(-c2cc3cc(F)c(F)cc3[nH]2)cc1Nc1cccc(OCc2ccccc2)c1 [Example 53, [5-(5,6-Difluoro-1H-indol-2-yl)-2-methoxy-phenyl]-(3-benzyloxy-phenyl)-amine] |  | 16 | 22 | 
24 | COc1ccc(-c2cc3cc(Cl)c(Cl)cc3[nH]2)cc1Nc1cccc(C(F)(F)F)c1 [Example 54, [5-(5,6-Dichloro-1H-indol-2-yl)-2-methoxy-phenyl]-(3-trifluoro-methylphenyl)-amine] | 193 to 194 |  | 127 | 
